Experimental data as given in patent US8685924B2, “Preventives/remedies for stress urinary incontinence and method of screening the same” (Takeda Pharmaceutical Company Limited, priority 2004, dated 2014).

Columns and labels:
[1] = system: urethane-anesthetized female rats; assay: Antagonism of the leak point pressure increase by WAY-161503 / WAY-163909, direct bladder compression method (Example 4); format: in vivo, rat; settings: for leak point pressure after drug administration / leak point pressure increase / leak point pressure before drug administration: i.v., mean ± SEM; for leak point pressure before drug administration: baseline
Procedure: SD female rats (body weight 180-350 g) were anesthetized with urethane (Wako Pure Chemical Industries, Ltd.), and halothane (Takeda Pharmaceutical Company Limited) anesthesia was added when necessary during operation.
The spinal cord was transected at T8-9 level to eliminate the reflex voiding. The lower abdomen was incised in the median line, a catheter for intravesical pressure measurement (PE-90, Clay Adams) was inserted into the bladder and secured with a ligature, and the intravesical pressure was measured via a pressure transducer. Urine was emptized in advance by bilaterally pressing the bladder with two swabs, and a 0.1% Evans blue (Merck) solution (0.4 mL) was injected into the bladder. The bladder was gradually compressed bilaterally with two swabs, and the intravesical pressure upon saline leakage from the urethral orifice was measured and defined as a leak point pressure. The measurement of the leak point pressure was repeated, and the average value of the final five stable measures was taken as the value before drug administration. Thereafter, the drug was intravenously administered, the leak point pressure was measured again 20 min later, and the value after the drug administration was determined. DOI, mCPP and eltoprazine were dissolved in saline, and other drugs were dissolved in DMA/PEG400 (1:1), and intravenously administered at 1 ml/kg and 0.5 mg/kg, respectively. Depending on the experiment, RS-102221 or SB221284 (showing serotonin 5-HT2C receptor antagonist activity) was administered, 5 min later, WAY-161503 or WAY-163909 was administered, leak point pressure was measured 10 min later, and a competitive assay with the action of WAY-161503 or WAY-163909 was performed. RS-102221 and SB221284 were both dissolved in DMA/PEG400 (1:1), and intravenously administered at 0.5 ml/kg.

[2] = system: urethane-anesthetized female rats; assay: Antagonism of the leak point pressure increase by WAY-161503 / WAY-163909, abdominal wall-electrically stimulating method (Example 3); format: in vivo, rat; settings: for leak point pressure after drug administration / leak point pressure increase / leak point pressure before drug administration: i.v., mean ± SEM; for leak point pressure before drug administration: baseline
Procedure: SD female rats (body weight 180-350 g) were anesthetized with urethane (Wako Pure Chemical Industries, Ltd.), and the spinal cord was transected at T8-9 level to eliminate the reflex voiding. In addition, the nerve to the iliococcygeus muscle/pubococcygeus muscle on the one side was transected. During operation, halothane (Takeda Pharmaceutical Company Limited) anesthesia was added when necessary. A catheter (PE-90, Clay Adams) was inserted into the bladder and secured with a ligature, and the incised part of each of the abdominal muscle and skin was closed with sutures. The abdominal skin near the diaphragm was incised at two left and right positions to newly expose the abdominal muscle. An Evans Blue dye (Merck) solution was injected into the bladder, and the bladder volume was adjusted to 0.2-0.3 ml. The bladder catheter was connected to a pressure transducer, and the signals of the transducer were sent to a computer via an amplifier (blood pressure amplification unit AP-641G; NIHON KOHDEN) and an analog-to-digital converter (BIOPAC; MP100), and recorded on a hard disc. The data were analyzed on a computer using software (BIOPAC; AcqKnowledge). The exposed abdominal muscle was electrostimulated using an electrostimulator (SEN-3301; NIHON KODEN) and an isolator (SS-202J; NIHON KODEN), and the presence or absence of incontinence from the meatus urethra was observed. The electrostimulation was applied at a voltage of 2.5-50 V, duration of 0.5 milisec, and frequency 50 Hz for 1 sec, thereby gradually increasing the intravesical pressure. The peak intravesical pressure during stimulation of the abdominal wall was measured and, of the trials with observed incontinence, the lowest peak intravesical pressure was defined as the leak point pressure. Serotonin 5-HT receptor agonist, WAY-161503 (5-HT2C receptor agonist), WAY-163909 (5-HT2C receptor agonist), DOI (5-HT2A/2B/2C receptor agonist), mCPP (5-HT2B/2C receptor partial agonist), eltoprazine (5-HT1A/1B/2C receptor partial agonist), 8-OH-DPAT (5-HT1A receptor agonist), sumatryptan (5-HT1B/1D receptor agonist) and BW723C86 (5-HT2B receptor agonist) were intravenously administered, and the leak point pressure was compared before and after the administration. DOI, mCPP and eltoprazine were dissolved in saline, and other drugs were dissolved in DMA/PEG400 (1:1), and they were intravenously administered at 1 ml/kg and 0.5 mg/kg, respectively. Depending on the experiment, RS-102221 (serotonin 5-HT2C receptor antagonist) or SB221284 (serotonin 5-HT2B/2C receptor antagonist) was intravenously administered 5 min before WAY-161503 or WAY-163909 administration, and an antagonistic effect against the WAY-161503 or WAY-163909-induced increment of the leak point pressure was examined. RS-102221 and SB221284 were both dissolved in DMA/PEG400 (1:1) and intravenously administered at 0.5 ml/kg.

[3] = antagonist 1 mg/kg, i.v. 5 min before WAY-161503 0.3 mg/kg
[4] = antagonist 1 mg/kg, i.v. 5 min before WAY-163909 0.3 mg/kg
[5] = antagonist 3 mg/kg, i.v. 5 min before WAY-161503 0.3 mg/kg
[6] = antagonist 3 mg/kg, i.v. 5 min before WAY-163909 0.3 mg/kg
[7] = antagonist alone 3 mg/kg, agonist: solvent, WAY-161503 series
[8] = antagonist alone 3 mg/kg, agonist: solvent, WAY-163909 series
[9] = antagonist 1 mg/kg, i.v. + WAY-161503 0.3 mg/kg
[10] = antagonist 3 mg/kg, i.v. + WAY-161503 0.3 mg/kg
[11] = antagonist 3 mg/kg, i.v. + WAY-163909 0.3 mg/kg
[12] = intravenous, against WAY-163909
[13] = antagonist 0.1 mg/kg, i.v. 5 min before WAY-163909 0.3 mg/kg
[14] = antagonist 0.3 mg/kg, i.v. 5 min before WAY-163909 0.3 mg/kg
[15] = antagonist alone 0.3 mg/kg, agonist: solvent, WAY-163909 series
[16] = antagonist 0.1 mg/kg, i.v. 5 min before WAY-161503 0.3 mg/kg
[17] = antagonist 0.3 mg/kg, i.v. 5 min before WAY-161503 0.3 mg/kg

## COc1cc(OC)c(C(=O)CCCCN2CCC3(CC2)NC(=O)NC3=O)cc1NS(=O)(=O)c1ccc(C(F)(F)F)cc1 [RS102221]
[1]; [3]
  leak point pressure after drug administration: 67.5 ± 5.4 cmH2O
  leak point pressure increase: 12.8 ± 1.9 cmH2O
[1]; [4]
  leak point pressure after drug administration: 74.1 ± 3.4 cmH2O
  leak point pressure increase: 11.6 ± 2.4 cmH2O
[1]; [5]
  leak point pressure after drug administration: 70.5 ± 1.8 cmH2O
  leak point pressure increase: 9.8 ± 2.7 cmH2O
[1]; [6]
  leak point pressure after drug administration: 70.9 ± 3.0 cmH2O
  leak point pressure increase: 7.4 ± 1.4 cmH2O
[1]; [7]
  leak point pressure after drug administration: 60.7 ± 6.2 cmH2O
  leak point pressure increase: 3.8 ± 1.9 cmH2O
  leak point pressure before drug administration: 56.8 ± 5.5 cmH2O
[1]; [8]
  leak point pressure after drug administration: 59.2 ± 6.6 cmH2O
  leak point pressure increase: −0.2 ± 2.1 cmH2O
  leak point pressure before drug administration: 59.4 ± 7.0 cmH2O
[1]; [9]
  leak point pressure before drug administration: 54.7 ± 6.1 cmH2O
[1]; antagonist 1 mg/kg, i.v. + WAY-163909 0.3 mg/kg
  leak point pressure before drug administration: 62.5 ± 3.1 cmH2O
[1]; [10]
  leak point pressure before drug administration: 60.7 ± 3.3 cmH2O
[1]; [11]
  leak point pressure before drug administration: 63.6 ± 3.3 cmH2O
[1]; intravenous, against WAY-161503 (0.3 mg/kg, i.v.)
  dose at which suppression of the leak point pressure increase was significant: 3 mg/kg
[1]; [12]
  dose at which suppression of the leak point pressure increase was significant: 3 mg/kg
[2]; [3]
  leak point pressure after drug administration: 68.5 ± 6.1 cmH2O
  leak point pressure increase: 20.2 ± 4.1 cmH2O
[2]; [5]
  leak point pressure after drug administration: 50.0 ± 6.3 cmH2O
  leak point pressure increase: 9.7 ± 2.1 cmH2O
[2]; [6]
  leak point pressure after drug administration: 53.0 ± 7.0 cmH2O
  leak point pressure increase: 6.5 ± 2.4 cmH2O
[2]; [9]
  leak point pressure before drug administration: 48.3 ± 7.5 cmH2O
[2]; [10]
  leak point pressure before drug administration: 40.3 ± 5.5 cmH2O
[2]; [11]
  leak point pressure before drug administration: 46.5 ± 5.9 cmH2O
[2]; intravenous, against WAY-161503 (0.3 mg/kg, i.v.) or WAY-163909 (0.3 mg/kg, i.v.)
  dose at which suppression of the leak point pressure increase was significant: 3 mg/kg

## CSc1cc2c(cc1C(F)(F)F)N(C(=O)Nc1cccnc1)CC2 [SB221284]
[1]; [13]
  leak point pressure after drug administration: 59.4 ± 3.9 cmH2O
  leak point pressure increase: 6.2 ± 3.1 cmH2O
[1]; [14]
  leak point pressure after drug administration: 60.7 ± 3.9 cmH2O
  leak point pressure increase: 0.4 ± 1.7 cmH2O
[1]; [15]
  leak point pressure after drug administration: 63.0 ± 2.0 cmH2O
  leak point pressure increase: −1.2 ± 2.2 cmH2O
  leak point pressure before drug administration: 64.2 ± 1.2 cmH2O
[1]; antagonist 0.1 mg/kg, i.v. + WAY-163909 0.3 mg/kg
  leak point pressure before drug administration: 53.2 ± 3.4 cmH2O
[1]; antagonist 0.3 mg/kg, i.v. + WAY-163909 0.3 mg/kg
  leak point pressure before drug administration: 60.3 ± 4.0 cmH2O
[1]; [12]
  suppression of the leak point pressure increase: significantly suppressed an increase in the leak point pressure by WAY-163909
[2]; against WAY-161503
  suppression of the leak point pressure increasing action: suppressed the leak point pressure increasing action by WAY-161503 significantly
[2]; [16]
  leak point pressure after drug administration: 66.9 ± 9.8 cmH2O
  leak point pressure increase: 13.6 ± 3.8 cmH2O
[2]; [17]
  leak point pressure after drug administration: 46.8 ± 6.2 cmH2O
  leak point pressure increase: −3.6 ± 1.4 cmH2O
[2]; antagonist 0.1 mg/kg, i.v. + WAY-161503 0.3 mg/kg
  leak point pressure before drug administration: 53.3 ± 7.0 cmH2O
[2]; antagonist 0.3 mg/kg, i.v. + WAY-161503 0.3 mg/kg
  leak point pressure before drug administration: 50.4 ± 6.3 cmH2O
